Assay results reported in patent publication US20190308988A1, “OPIOID RECEPTOR ANTAGONIST PRODRUGS” (Nirsum Laboratories, Inc., priority 2017, published 2019).
In brackets after ≈: the same amount, converted by molar mass.

Key:
[1] = Polymorph screening of solid state drug substances (Table 23); format: physicochemical; settings: stirred 50 °C 72 hours; for Dry method and appearance: dried solid
[2] = Solubility determination in oil (Table 10); settings: for solubility / solubility thermodynamic / solubility at 24 h: thermodynamic from solid; for solubility thermodynamic: water, Equilibrium solubility: Water; for solubility at 24 h: 25 °C, Obs. Temp. 25 °C
Experimental: A known amount of test substance (˜40 mg) was weighed into the vial, 100 μL of oil was added and heated to 60° C. and then system was slurried to reach equilibrium. […] Extra oil was added into the vial once compound precipitated out and then the system was re-equilibrated at 1000 rpm at room temperature (25° C.). Final concentration was determined by HPLC method as described below in Table 6a and 6b.

[3] = 40 °C, oil or lipid, Approximate Solubility in Excipient: Cottonseed oil, Heating Temp. 40 °C, Obs. Temp. 40 °C
[4] = 40 °C, oil or lipid, Approximate Solubility in Excipient: Cottonseed oil, Heating Temp. 60 °C, Obs. Temp. 40 °C
[5] = 40 °C, oil or lipid, Approximate Solubility in Excipient: Sesame oil, Heating Temp. 40 °C, Obs. Temp. 40 °C
[6] = 40 °C, oil or lipid, Approximate Solubility in Excipient: Sesame oil, Heating Temp. 60 °C, Obs. Temp. 40 °C
[7] = 40 °C, organic solvent or mixture, Approximate Solubility in Excipient: Ethanol, Heating Temp. 40 °C, Obs. Temp. 40 °C
[8] = 40 °C, Heating Temp. 40 °C, Obs. Temp. 40 °C
[9] = after slurry in Heptane, temperatures N/A
[10] = oil or lipid, Approximate Solubility in Excipient: Cottonseed oil, Heating Temp. 60 °C
[11] = oil or lipid, Approximate Solubility in Excipient: Sesame oil, Heating Temp. 60 °C
[12] = 40 °C, oil or lipid, Approximate Solubility in Excipient: Castor oil, Heating Temp. 40 °C, Obs. Temp. 40 °C

Row | SMILES | XRPD results (Dried) ([1]; Acetone) | Dry method and appearance ([1]; Acetone) | XRPD results (Dried) ([1]; EtOAc) | Dry method and appearance ([1]; EtOAc) | XRPD results (Dried) ([1]; Heptane) | Dry method and appearance ([1]; Heptane) | XRPD results (Dried) ([1]; Isopropanol) | Dry method and appearance ([1]; Isopropanol) | XRPD results (Dried) ([1]; MTBE) | Dry method and appearance ([1]; MTBE) | solubility [2, 3] | solubility [2, 5] | solubility [2, 7] | solubility thermodynamic [2, 8] | solubility at 24 h [2, 10] | solubility at 24 h [2, 11] | other results
1 | C=C1CC[C@@]2(O)C3Cc4ccc(OC(=O)CCCCCCCCCCCCCCCCCCCCC)c5c4[C@@]2(CCN3CC2CC2)[C@H]1O5 [Compound 14, (4aS,7aS,12bS)-3-(cyclopropylmethyl)-4a-hydroxy-7-methylene-2,3,4,4a,5,6,7,7a-octahydro-1H-4,12-methanobenzofuro[3,2-e]isoquinolin-9-yl docosanoate] | Pattern A | Evaporation/white powder | Pattern A | Evaporation/white powder | Pattern B | Centrifugation/white powder | Pattern A | Evaporation/white powder | Pattern A | Evaporation/white powder | < 50 mg/mL | < 51 mg/mL | 69 to 83 mg/mL (≈ 104 to 125 mM) | 0.01 mg/mL (≈ 0.0151 mM) |  |  | solubility [2, 4]: < 25 mg/mL; solubility [2, 6]: < 25 mg/mL; solubility thermodynamic ([2]; after slurry in EtOAc, temperatures N/A): < 0.0005 mg/mL; solubility thermodynamic [2, 9]: < 0.0005 mg/mL
2 | CCCCCCCCCCOC(=O)Oc1ccc2c3c1O[C@H]1C(=O)CC[C@@]4(O)C(C2)N(CC2CC2)CC[C@]314 [Compound 10, (4aS,7aR,12bS)-3-(cyclopropylmethyl)-4a-hydroxy-7-oxo-2,3,4,4a,5,6,7,7a-octahydro-1H-4,12-methanobenzofuro[3,2-e]isoquinolin-9-yl decyl carbonate] | Pattern A | Evaporation/White wax | Pattern A | Evaporation/White wax | Pattern A | Centrifugation/White wax | Pattern A | Evaporation/White wax | Pattern A | Evaporation/White wax |  |  |  |  |  |  | 
3 | C=C1CC[C@@]2(O)C3Cc4ccc(OC(=O)OCCCCCCCCCCCCCCCC)c5c4[C@@]2(CCN3CC2CC2)[C@H]1O5 [Compound 19, (4aS,7aS,12bS)-3-(cyclopropylmethyl)-4a-hydroxy-7-methylene-2,3,4,4a,5,6,7,7a-octahydro-1H-4,12-methanobenzofuro[3,2-e]isoquinolin-9-yl hexadecyl carbonate] | Pattern A | Evaporation/white powder | Pattern A | Evaporation/white powder | Pattern A | Evaporation/white powder | Pattern A | Evaporation/white powder | Pattern A | Evaporation/white powder | 67 to 80 mg/mL (≈ 110 to 132 mM) | 103 to 137 mg/mL (≈ 169 to 225 mM) | 27 to 42 mg/mL (≈ 44.4 to 69.1 mM) | 0.0468 mg/mL (≈ 0.077 mM) |  |  | 
4 | CCCCCCCCCCCCOC(=O)Oc1ccc2c3c1O[C@H]1C(=O)CC[C@@]4(O)C(C2)N(CC2CC2)CC[C@]314 [Compound 11, (4aS,7aR,12bS)-3-(cyclopropylmethyl)-4a-hydroxy-7-oxo-2,3,4,4a,5,6,7,7a-octahydro-1H-4,12-methanobenzofuro[3,2-e]isoquinolin-9-yl dodecyl carbonate] | Pattern A | Evaporation/white powder | Pattern A | Evaporation/white powder | Pattern B | Evaporation/white powder | Pattern A | Evaporation/white powder | Pattern A | Evaporation/white powder | > 407 mg/mL | > 407 mg/mL | > 218 mg/mL | 0.0005 mg/mL (≈ 0.000903 mM) | < 51 mg/mL | < 50 mg/mL | solubility thermodynamic [2, 9]: 0.0026 mg/mL (≈ 0.0047 mM)
5 | CCCCCCCCCCCC(=O)OCOc1ccc2c3c1O[C@H]1C(=O)CC[C@@]4(O)C(C2)N(CC2CC2)CC[C@]314 [Compound 48, (((4aS,7aR,12bS)-3-(cyclopropylmethyl)-4a-hydroxy-7-oxo-2,3,4,4a,5,6,7,7a-octahydro-1H-4,12-methanobenzofuro[3,2-e]isoquinolin-9-yl)oxy)methyl dodecanoate] |  |  |  |  |  |  |  |  |  |  |  |  |  | 0.003 mg/mL (≈ 0.00542 mM) | > 410 mg/mL | > 405 mg/mL | 
6 | CCCCCCCCCCCCCCCCOC(=O)OCOc1ccc2c3c1O[C@H]1C(=O)CC[C@@]4(O)C(C2)N(CC2CC2)CC[C@]314 [Compound 47, (((4aS,7aR,12bS)-3-(cyclopropylmethyl)-4a-hydroxy-7-oxo-2,3,4,4a,5,6,7,7a-octahydro-1H-4,12-methanobenzofuro[3,2-e]isoquinolin-9-yl)oxy)methyl hexadecyl carbonate] |  |  |  |  |  |  |  |  |  |  |  |  |  | < 0.001 mg/mL | > 406 mg/mL | > 405 mg/mL | 
7 | C=C1CC[C@@]2(O)C3Cc4ccc(OC(=O)CCCCCCC/C=C\C/C=C\CCCCC)c5c4[C@@]2(CCN3CC2CC2)[C@H]1O5 [Compound 37, (4aS,7aS,12bS)-3-(cyclopropylmethyl)-4a-hydroxy-7-methylene-2,3,4,4a,5,6,7,7a-octahydro-1H-4,12-methanobenzofuro[3,2-e]isoquinolin-9-yl (9Z,12Z)-octadeca-9,12-dienoate] |  |  |  |  |  |  |  |  |  |  | > 405 mg/mL | > 408 mg/mL | 75 to 90 mg/mL (≈ 125 to 150 mM) | 0.002 mg/mL (≈ 0.00332 mM) | 68.5 to 82 mg/mL (≈ 114 to 136 mM) | 80 to 102 mg/mL (≈ 133 to 169 mM) | solubility [2, 12]: > 226 mg/mL
8 | C=C1CC[C@@]2(O)C3Cc4ccc(OC(=O)CCCCCCC/C=C\C/C=C\C/C=C\CC)c5c4[C@@]2(CCN3CC2CC2)[C@H]1O5 [Compound 20, (4aS,7aS,12bS)-3-(cyclopropylmethyl)-4a-hydroxy-7-methylene-2,3,4,4a,5,6,7,7a-octahydro-1H-4,12-methanobenzofuro[3,2-e]isoquinolin-9-yl (9Z,12Z,15Z)-octadeca-9,12,15-trienoate] |  |  |  |  |  |  |  |  |  |  | > 414 mg/mL | > 406 mg/mL | 157 to 197 mg/mL (≈ 262 to 328 mM) | < 0.0002 mg/mL | 68 to 82 mg/mL (≈ 113 to 137 mM) | 80 to 100 mg/mL (≈ 133 to 167 mM) | 
9 | C=C1CC[C@@]2(O)C3Cc4ccc(OC(=O)OCCCCCCCCCCCCCCCCCC)c5c4[C@@]2(CCN3CC2CC2)[C@H]1O5 [Compound 33, (4aS,7aS,12bS)-3-(cyclopropylmethyl)-4a-hydroxy-7-methylene-2,3,4,4a,5,6,7,7a-octahydro-1H-4,12-methanobenzofuro[3,2-e]isoquinolin-9-yl octadecyl carbonate] |  |  |  |  |  |  |  |  |  |  |  |  |  | < 0.001 mg/mL | < 50 mg/mL | < 51 mg/mL | 
10 | CCCCCCCCCCCCCC(=O)Oc1ccc2c3c1O[C@H]1C(=O)CC[C@@]4(O)C(C2)N(CC2CC2)CC[C@]314 [Compound 57, (4aS,7aR,12bS)-3-(cyclopropylmethyl)-4a-hydroxy-7-oxo-2,3,4,4a,5,6,7,7a-octahydro-1H-4,12-methanobenzofuro[3,2-e]isoquinolin-9-yl tetradecanoate] |  |  |  |  |  |  |  |  |  |  |  |  |  | < 0.001 mg/mL | > 424 mg/mL | > 417 mg/mL | 
11 | O=C(CCC1CCCC1)Oc1ccc2c3c1O[C@H]1C(=O)CC[C@@]4(O)C(C2)N(CC2CC2)CC[C@]314 [Compound 43, (4aS,7aR,12bS)-3-(cyclopropylmethyl)-4a-hydroxy-7-oxo-2,3,4,4a,5,6,7,7a-octahydro-1H-4,12-methanobenzofuro[3,2-e]isoquinolin-9-yl 3-cyclopentylpropanoate] |  |  |  |  |  |  |  |  |  |  | < 50 mg/mL | < 50 mg/mL | > 257 mg/mL | 0.05 mg/mL (≈ 0.107 mM) |  |  | solubility [2, 4]: 140 to 210 mg/mL (≈ 301 to 451 mM); solubility [2, 6]: 133 to 199 mg/mL (≈ 286 to 427 mM); Equilibrium solubility: Water ([2]; Heating Temp. 40 °C, Obs. Temp. 40 °C): 0.048 mg/mL
12 | C=C1CC[C@@]2(O)C3Cc4ccc(OC(=O)CCCCCCC/C=C\CCCCCCCC)c5c4[C@@]2(CCN3CC2CC2)[C@H]1O5 [Compound 36, (4aS,7aS,12bS)-3-(cyclopropylmethyl)-4a-hydroxy-7-methylene-2,3,4,4a,5,6,7,7a-octahydro-1H-4,12-methanobenzofuro[3,2-e]isoquinolin-9-yl oleate] |  |  |  |  |  |  |  |  |  |  | > 419 mg/mL | > 412 mg/mL | 20 to 30 mg/mL (≈ 33.1 to 49.7 mM) | 0.005 mg/mL (≈ 0.00828 mM) | > 407 mg/mL | > 408 mg/mL | solubility [2, 12]: > 217 mg/mL
